From patent US20040091860A1 (priority 1999, published 2004)

What was measured:
[1] = system: rice POX genes; test: Inducibility of rice peroxidases to ethephon and MeJA (RNA gel blot analysis); assay type: in vivo, Oryza sativa cv. Nipponbare; settings: for response of R2151 gene expression to stimuli: R2151 gene (group A1), FIG. 8(d), day 16, compared with control; for expression of R2693, R2329, S11222, prxRPA, R2576, R2184 and C52903 POX genes: leaf blades of 16-day-old seedlings, 1 mM ethephon or 25 μM MeJA solution sprayed onto whole plants, 48 hours, versus leaf blade without stress
Protocol: Gene expression was analyzed by subjecting total RNAs isolated by the ATA method (Nagy et al., Reference 35) to RNA gel blot analysis (Ausubel et al., Reference 36).
cDNA fragments containing 3′ untranslated regions of 21 rice POX genes indicated by boxes in FIG. 1 were amplified by the PCR method. The amplified fragments were used as probes specific to the respective POX genes for the RNA gel blot analysis.
The above-described RNAs were subjected to electrophoresis, followed by transcription to a membrane (HyBond N, Amersham). The specific probes were allowed to hybridize, followed by washing for 5 min (once) and for 10 min (twice) in 2×SSC containing 0.1% SDS at room temperature, and then three times in 1×SSC containing 0.1% SDS for 15 min each at 65° C. Subsequently, the membrane was subjected to autoradiography at −80° C. using a film for autoradiography (XA OMT, Kodak) overnight or more. The recovered film was analyzed by the BAS2000 Bioimaging analyzer (Fuji Photo Film Co., Ltd.) or Phosphor Imager SI (Molecular Dynamics) in accordance with the manufacturer's instruction. The amount of RNA loaded was confirmed by monitoring the level of ribosome RNA (rRNA) stained by methylene blue. The expression amounts of the POXs were compared with each other with reference to the rRNA levels.
16-day-old seedlings were produced under the conditions described in Example 2. With these seedlings, the inducibility of rice peroxidases to ethephon (an ethylene release factor) and MeJA (a wound information transfer substance) was analyzed. For ethephon stimulus, 1 mM ethephon solution containing 0.05% ethanol was used. For MeJA stimulus, 25 μM MeJA solution containing 0.125% Triton X-100 was used. These solutions were sprayed onto whole plants, and maintained for 48 hours.
RNAs were extracted from the leaf blades of stimulated rice plants in a manner as described in Example 2. For each POX, expression specificity was analyzed. As a control, leaf blade without a stress were used.

[2] = system: POX genes; assay type: in vivo, Oryza sativa cv. Nipponbare; settings: probenazole-treated rice, before and 2, 3, 4 and 5 days after rice blast fungus treatment; FIG. 24
[3] = system: rice blast fungus (M. grisea race(003)); assay type: in vivo, Magnaporthe grisea; settings: compatible rice treated with probenazole (100 mg/ml) two days before M. grisea race(003), 1×10^5 spores/ml; untreated compatible rice: days 4 and 5
[4] = system: rice POX genes; design: species or system Oryza sativa cv. Nipponbare

SMILES: O=P(O)(O)CCCl [Ethephon, ethephon]
- response of R2151 gene expression to stimuli [1]: reducible responses
- expression of R2693, R2329, S11222, prxRPA, R2576, R2184 and C52903 POX genes [1]: induced expression

SMILES: C=CCOC1=NS(=O)(=O)c2ccccc21 [probenazole]
- expression patterns with E2184, R2576, R2693 and R2329 as probes [2]: significantly similar to the transition pattern of formation of lesion spots
- lesion spot formation found on days after rice blast fungus treatment [3]: 2 to 3 days

SMILES: CC/C=C\CC1C(=O)CCC1CC(=O)OC (centres unmarked) [MeJA, methyl jasmonate]
- response of R2151 gene expression to stimuli [1]: reducible responses
- expression of R2693, R2329, S11222, prxRPA, R2576, R2184 and C52903 POX genes [1]: induced expression

SMILES: C[n+]1ccc(-c2cc[n+](C)cc2)cc1 [paraquat, 1,1-dimethyl-4,4-dipyridinium dichloride]
- expression of R2329, prxRPA, R2576 and C52903 [4]: induced
- expression of apoplastic (R2329, prx2576 and R2576) and vacuolar (e.g., R2184 and C52903) POXs [4]: induced the expression
